Data from ChEMBL document CHEMBL3885881, “DrugMatrix”.

Species on record: Rattus norvegicus
Assay: DrugMatrix - Regimen: Daily Repeat
Format: toxicity, organism-based, Sprague-Dawley
Parameters: regimen Daily Repeat, gender Male, age 6-8 weeks
Conditions: in vivo, po, 10 mg/kg, route oral GAVAGE, dose level Low, […]; for ABSOLUTE BASOPHIL / ABSOLUTE EOSINOPHIL / ABSOLUTE LYMPHOCYTE / ABSOLUTE MONOCYTE / ABSOLUTE SEGMENTED NEUTROPHIL / BASOPHIL / EOSINOPHIL / ERYTHROCYTE COUNT / HEMATOCRIT / HEMOGLOBIN / LEUKOCYTE COUNT / LYMPHOCYTE / MEAN CORPUSCULAR HEMOGLOBIN / MEAN CORPUSCULAR HEMOGLOBIN CONCENTRATION / MEAN CORPUSCULAR VOLUME / MONOCYTE / NEUTROPHIL / NUCLEATED RED BLOOD CELLS / PLATELET COUNT: tissue Blood; for ALANINE AMINOTRANSFERASE / ALBUMIN / ALKALINE PHOSPHATASE / ASPARTATE AMINOTRANSFERASE / BLOOD UREA NITROGEN / CARBON DIOXIDE / CHLORIDE / CHOLESTEROL / CREATINE PHOSPHOKINASE / CREATININE / GLUCOSE / LACTATE DEHYDROGENASE / LIPASE / PHOSPHORUS / POTASSIUM / SODIUM / TOTAL BILIRUBIN / TOTAL PROTEIN / URIC ACID: tissue Plasma

## NC(=O)N1C(=O)/C(=C(\O)c2cccs2)c2cc(Cl)ccc21 [TENIDAP]
72 h, time 3 day
  ABSOLUTE BASOPHIL: 0 CELLS/uL
  ABSOLUTE EOSINOPHIL: 204 CELLS/uL
  ABSOLUTE LYMPHOCYTE: 13523 CELLS/uL
  ABSOLUTE MONOCYTE: 155.33 CELLS/uL
  ABSOLUTE SEGMENTED NEUTROPHIL: 1651 CELLS/uL
  BASOPHIL: 0%
  EOSINOPHIL: 1.33%
  ERYTHROCYTE COUNT: 5.32 x10E6/uL
  HEMATOCRIT: 33.53%
  HEMOGLOBIN: 13.33 G/DL
  LEUKOCYTE COUNT: 15.53 x10E3/uL
  LYMPHOCYTE: 86.67%
  MEAN CORPUSCULAR HEMOGLOBIN: 25.03 pg
  MEAN CORPUSCULAR HEMOGLOBIN CONCENTRATION: 39.73 G/DL
  MEAN CORPUSCULAR VOLUME: 62.97 fL
  MONOCYTE: 1%
  NEUTROPHIL: 11%
  NUCLEATED RED BLOOD CELLS: 0 /100WBC
  PLATELET COUNT: 1066.67 x10E3/uL
  ALANINE AMINOTRANSFERASE: 83.33 u/L
  ALBUMIN: 3.87 G/DL
  ALKALINE PHOSPHATASE: 429.33 u/L
  ASPARTATE AMINOTRANSFERASE: 109.67 u/L
  BLOOD UREA NITROGEN: 11 mg/dL
  CARBON DIOXIDE: 23.67 mmol/L
  CHLORIDE: 102.67 MEQ/L
  CHOLESTEROL: 63.67 mg/dL
  CREATINE PHOSPHOKINASE: 779.67 u/L
  CREATININE: 0.2 mg/dL
  GLUCOSE: 169 mg/dL
  LACTATE DEHYDROGENASE: 223.67 u/L
  LIPASE: 12 u/L
  PHOSPHORUS: 11.47 mg/dL
  POTASSIUM: 5.98 MEQ/L
  SODIUM: 143.97 MEQ/L
  TOTAL BILIRUBIN: 0.17 mg/dL
  TOTAL PROTEIN: 5.27 G/DL
  URIC ACID: 1.43 mg/dL
120 h, time 5 day
  ABSOLUTE BASOPHIL: 0 CELLS/uL
  ABSOLUTE EOSINOPHIL: 83.67 CELLS/uL
  ABSOLUTE LYMPHOCYTE: 10624.67 CELLS/uL
  ABSOLUTE MONOCYTE: 83.67 CELLS/uL
  ABSOLUTE SEGMENTED NEUTROPHIL: 1674.67 CELLS/uL
  BASOPHIL: 0%
  EOSINOPHIL: 0.67%
  ERYTHROCYTE COUNT: 5.4 x10E6/uL
  HEMATOCRIT: 33.6%
  HEMOGLOBIN: 13.33 G/DL
  LEUKOCYTE COUNT: 12.47 x10E3/uL
  LYMPHOCYTE: 85.33%
  MEAN CORPUSCULAR HEMOGLOBIN: 24.7 pg
  MEAN CORPUSCULAR HEMOGLOBIN CONCENTRATION: 39.67 G/DL
  MEAN CORPUSCULAR VOLUME: 62.27 fL
  MONOCYTE: 0.67%
  NEUTROPHIL: 13.33%
  NUCLEATED RED BLOOD CELLS: 0 /100WBC
  PLATELET COUNT: 1241 x10E3/uL
  ALANINE AMINOTRANSFERASE: 56.33 u/L
  ALBUMIN: 4.13 G/DL
  ALKALINE PHOSPHATASE: 448.67 u/L
  ASPARTATE AMINOTRANSFERASE: 103.33 u/L
  BLOOD UREA NITROGEN: 13 mg/dL
  CARBON DIOXIDE: 33.67 mmol/L
  CHLORIDE: 100.33 MEQ/L
  CHOLESTEROL: 58.33 mg/dL
  CREATINE PHOSPHOKINASE: 442.67 u/L
  CREATININE: 0.21 mg/dL
  GLUCOSE: 155 mg/dL
  LACTATE DEHYDROGENASE: 736.33 u/L
  LIPASE: 11 u/L
  PHOSPHORUS: 11.1 mg/dL
  POTASSIUM: 6.31 MEQ/L
  SODIUM: 144.37 MEQ/L
  TOTAL BILIRUBIN: 0.17 mg/dL
  TOTAL PROTEIN: 5.93 G/DL
  URIC ACID: 1.33 mg/dL
